We go through 2 compounds from patent publication US20170166555A1, “FUNCTIONALISED AND SUBSTITUTED INDOLES AS ANTI-CANCER AGENTS” (Novogen Limited, priority 2013, published 2017).

The test system of data set [1] is non-transfected and Tm5NM1 stably transfected MEFs. Put plainly: MTT viability in non-transfected versus Tm5NM1 stably transfected MEFs. Type of data set: cell-based, mouse. The note with it: 48 hr, FIG. 1. As to the method:
FIG. 1: Activity of selected compounds against Tm5NM1/2 transfected mouse embryonic fibroblasts versus non-transfected MEFs.
Compounds 4001, 4010, 4014, 4008 and 4015 were then screened against non-transfected and Tm5NM1 stably transfected MEFs. Briefly, MEFs were transfected with pEYFP-C1/Tm5NM1 constructs using the Amaxa nucleofector apparatus (program A-023) and MEF nucleofector kit 1 (Lonza) according to the manufacturer's instructions. Cell viability assays were also conducted to assess the anti-proliferative effects of the anti-tropomyosin compounds. Briefly, cells (1×10^3/well) were plated (96-well) and treated (48 hr) with anti-tropomyosin compounds and viability measured using 3-(4,5-dimethylthiazol-2-yl)-2, 5-diphenylterazolium bromide MTT. Cell viability was normalized to control (vehicle alone) and dose-response curves, and half maximal effective concentration (EC50) values were determined using Graph Pad Prism 5 (nonlinear regression sigmoidal dose-response variable slope).

Data set [2] has as its system A375 melanoma xenograft. The experiment in a line: A375 melanoma xenograft efficacy study. To be noted: hydrochloride salt, 20 mg/kg intravenously QD, 15 days. Type of data set: in vivo, Foxn-1 nu/nu athymic mice. As to the method:
FIG. 6: Tumor volumes ±SEM of animals treated with Control (Carbonate vehicle) or compound 4015 (20 mg/kg, I.V., QD).
(§1) In vivo efficacy studies for compound 4015 hydrochloride salt were conducted using an A375 melanoma xenograft model in Foxn-1 nu/nu athymic mice. The human melanoma cell line A375 (sourced from American Type Culture Collection (ATCC), USA) was used for developing the flank xenograft model. Briefly, five million cells were injected subcutaneously in the right flank region of the animal. When the tumors reached 130-150 mm^3 the animals were randomized into two groups, each group with 8 animals in them, so that the average tumor volume of all the groups was same.
(§2) First group received vehicle (sodium bicarbonate buffer) intravenously once a day (QD). The second group received compound 4015 at 20 mg/kg, intravenously (QD) (Table 7). The volume of dosing to each animal was calculated and adjusted every day based on individual body weight measured prior to dosing.
(§3) Animals were treated from the day of randomization (Day 1) for 15 days. Body weight and tumor dimensions (length and diameter) were measured three times in a week including the termination day of the study. Throughout the study period, mice were monitored daily for clinical condition.

Data set [3] in a line: Tolerance in the A375 xenograft study (body weight, clinical observations). Type of data set: in vivo. The note with it: hydrochloride salt, 20 mg/kg intravenously QD, 15 days. As to the method: FIG. 5: Average body weight measurement ±SEM (grams) of animals in Control (Carbonate vehicle) and compound 4015 (20 mg/kg, I.V., QD) treated animals.
as §1, §2, §3

Data set [4] deals with total actin cytoskeleton in SK-N-SH neuroblastoma cells. Put plainly: Microfilament disruption assay, 488-Atto-Phallodin imaging and filament quantitation. Type of data set: cell-based. The note with it: 0-40 μM, 24 h, FIG. 2. As to the method: (§4) FIG. 2: Imaging and quantitation of actin filaments in SK—N—SH neuroblastoma cells treated with compound (A) 4093 and (B) 4113. Cells were stained with 488-Atto-Phallodin and DAPI to visualize the actin filament bundles and the nucleus, respectively. Shown in the top panel is a representative grey scale immunofluorescent image from control (vehicle alone), 5 μM and 10 μM treated cells. […] The coloured lines indicate the detected actin filaments. Also shown is the quantitation of cell number, filament number/cell and filament number/cell area ([…]). […]
(§5) The ability of compounds 4093 and 4113 to disrupt the total actin cytoskeleton (FIG. 2) and to specifically target Tm5NM1-containing actin filaments (FIG. 3) was assessed in vitro using the microfilament disruption assay.
(§6) Briefly, SK-N-SH neuroblastoma cells were seeded at 1800 cells/well in a 384 Perkin Elmer High Content Imaging “View” plate and left to plate down 24 h prior to treatment. […] Images were then exported and changes in the organization and numbers of actin filaments within the cell were quantitated using a linear feature detection algorithm developed by the CSIRO. […] It is these “ridge lines” that correspond to actin filament bundles and allow us to quantitate the number of filaments per cell.

Data set [5] concerns Tm5NM1-containing actin filaments in SK-N-SH neuroblastoma cells. Put plainly: Microfilament disruption assay, γ9d staining imaging and filament quantitation. To be noted: 0-40 μM, 24 h, FIG. 3. Type of data set: cell-based. As to the method: as §4, with “FIG. 3:” for “FIG. 2:”, “with γ9d (sheep polycolonal, 1:100) followed by 488-conjugated secondary (1:1000)” for “with 488-Atto-Phallodin”, “the Tm5NM1 containing” for “the actin”
as §5, §6

Data set [6] concerns glioblastoma (U251) cells. The experiment in a line: Cell viability, CellTiter 96 AQueous, 72 hours. Type of data set: cell-based. The note with it: Homo sapiens, U-251. As to the method:
(§7) The anti-proliferative activity of compound 4093 against ovarian cancer (SKOV3) and glioblastoma (U251) cells was also evaluated (Table 6). Briefly, cells were seeded at 2000 cells/well in a 96 well plate. 24 hrs post plating, each cell line was exposed to various concentrations of ATM-4093 (10, 5, 3,1, 0.7, 0.5, 0.3, 0.1 μM) for 72 hours. Cell viability was determined using CellTiter 96 AQueous (Promega) and absorbance measured at 490 nm on the SpectraMax M2 plate reader. Cell viability was normalized to control (vehicle alone) and dose-response curves, and half maximal effective concentration (EC50) values were determined using Graph Pad Prism 6 (nonlinear regression sigmoidal dose-response variable slope).

Data set [7] deals with ovarian cancer (SKOV3) cells. Put plainly: Cell viability, CellTiter 96 AQueous, 72 hours. To be noted: Homo sapiens, SK-OV-3. Type of data set: cell-based. As to the method: as §7

In the case of `Cc1c(C)n(CCCN(C)C)c2ccc(CN3CCN(CCc4ccccc4)CC3)cc12` [Compound 4015, 3-(2,3-dimethyl-5-((4-phenethylpiperazin-1-yl)methyl)-1H-indol-1-yl)-N,N-dimethylpropan-1-amine], the “Selectivity: toxicity against primary MEFs versus MEFs stably transfected with Tm5NM1/2” value in data set [1] is “less toxicity noted against primary mouse embryonic fibroblasts (MEFs) compared with MEFs stably transfected with Tm5NM1/2”. Also, the “Reduction in tumor growth compared to control” value in data set [2] worked out at 26%. In data set [3], the “Tolerability (body weight and clinical observations)” value was “well tolerated”.

Regarding `Cc1c(C)n(CCCN(C)C)c2ccc(Oc3ccc(C(=O)Nc4ccc(F)cc4)cc3)cc12` [Compound 4093, 4-((1-(3-(dimethylamino)propyl)-2,3-dimethyl-1H-indol-5-yl)oxy)-N-(4-fluorophenyl)benzamide], the “Disruption of the total actin cytoskeleton” value in data set [4] is “disrupt both the total actin cytoskeleton and Tm5NM1-containing actin filaments in a dose-dependent manner”. In data set [5], the “Disruption of Tm5NM1-containing actin filaments” value was “disrupt both the total actin cytoskeleton and Tm5NM1-containing actin filaments in a dose-dependent manner”. In addition, the IC50 was 0.5 µM in data set [6] and 0.6 µM in data set [7].

As usually defined, the IC50 is the point on the concentration scale where inhibition reaches its midpoint. Read a low IC50 as greater potency.
